In PubChem BioAssay AID256 (DTP/NCI, 2004):
Inconclusive results and toxic doses are left out.

Tested on: CD2F1 mice, L1210 leukemia ip, survival T/C
Experiment: NCI In Vivo Anticancer Drug Screen. Data for tumor model L1210 Leukemia (intraperitoneal) in CD2F1 (CDF1) mice
Conditions: endpoint: mean survival time, higher = longer survival
Procedure, shortened: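 Ratio T/C, where T is the treated-group value and C the vehicle-dosed control value, from mice implanted with a transplantable tumor.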

[1] = dose: 100.0 mg/kg/injection, schedule: Q01DX001 (ip), vehicle: saline
[2] = dose: 200.0 mg/kg/injection, schedule: Q01DX001 (ip), vehicle: saline
[3] = dose: 400.0 mg/kg/injection, schedule: Q01DX001 (ip), vehicle: saline
[4] = dose: 50.0 mg/kg/injection, schedule: Q01DX009 (ip), vehicle: saline with Tween-80
[5] = dose: 100.0 mg/kg/injection, schedule: Q01DX009 (ip), vehicle: saline with Tween-80
[6] = dose: 200.0 mg/kg/injection, schedule: Q01DX009 (ip), vehicle: saline with Tween-80
[7] = dose: 100.0 mg/kg/injection, schedule: Q04DX003 (ip), vehicle: saline
[8] = dose: 100.0 mg/kg/injection, schedule: Q01DX001 (ip), vehicle: saline with Tween-80
[9] = dose: 200.0 mg/kg/injection, schedule: Q01DX001 (ip), vehicle: saline with Tween-80
[10] = dose: 400.0 mg/kg/injection, schedule: Q01DX001 (ip), vehicle: saline with Tween-80
[11] = dose: 75.0 mg/kg/injection, schedule: Q01DX001 (ip), vehicle: saline
[12] = dose: 150.0 mg/kg/injection, schedule: Q01DX001 (ip), vehicle: saline
[13] = dose: 300.0 mg/kg/injection, schedule: Q01DX001 (ip), vehicle: saline
[14] = dose: 200.0 mg/kg/injection, schedule: Q04DX003 (ip), vehicle: saline with Tween-80

CCOC(=O)CCCCCSc1n[nH]c(=O)[nH]c1=O
T/C (dose: 12.5 mg/kg/injection, schedule: Q01DX005 (ip), vehicle: distilled water + Tween-80): 102 % of control | T/C (dose: 25.0 mg/kg/injection, schedule: Q01DX005 (ip), vehicle: distilled water + Tween-80): 103 % of control | T/C (dose: 50.0 mg/kg/injection, schedule: Q01DX005 (ip), vehicle: distilled water + Tween-80): 92 % of control | T/C (dose: 100.0 mg/kg/injection, schedule: Q01DX005 (ip), vehicle: distilled water + Tween-80): 102 % of control | T/C (dose: 200.0 mg/kg/injection, schedule: Q01DX005 (ip), vehicle: distilled water + Tween-80): 102 % of control

COc1cc2ccc3c4cc5c(cc4c[n+](C)c3c2cc1OC)OCO5
T/C (dose: 10.0 mg/kg/injection, schedule: Q01DX009 (ip), vehicle: Klucel (hydroxypropylcellulose) (HPC)): 119 % of control | T/C (dose: 20.0 mg/kg/injection, schedule: Q01DX009 (ip), vehicle: Klucel (hydroxypropylcellulose) (HPC)): 119 % of control | T/C (dose: 40.0 mg/kg/injection, schedule: Q01DX009 (ip), vehicle: Klucel (hydroxypropylcellulose) (HPC)): 121 % of control | T/C (dose: 80.0 mg/kg/injection, schedule: Q01DX009 (ip), vehicle: Klucel (hydroxypropylcellulose) (HPC)): 115 % of control | T/C (dose: 160.0 mg/kg/injection, schedule: Q01DX009 (ip), vehicle: Klucel (hydroxypropylcellulose) (HPC)): 97 % of control

NC(=O)c1ncn(C2OC(COP(=O)(O)O)C(O)C2O)c1N (centres undefined)
T/C (dose: 12.5 mg/kg/injection, schedule: Q01DX005 (ip), vehicle: water): 97 % of control | T/C (dose: 25.0 mg/kg/injection, schedule: Q01DX005 (ip), vehicle: water): 96 % of control | T/C (dose: 50.0 mg/kg/injection, schedule: Q01DX005 (ip), vehicle: water): 102 % of control | T/C [1]: 102 % of control | T/C (dose: 100.0 mg/kg/injection, schedule: Q01DX005 (ip), vehicle: water): 94 % of control | T/C [2]: 95 % of control | T/C (dose: 200.0 mg/kg/injection, schedule: Q01DX005 (ip), vehicle: water): 100 % of control | T/C [3]: 101 % of control

CCCCCCCCCCCCCCCCS(=O)CC(O)COC(=O)c1ccc(C(=O)OCC(O)CS(=O)CCCCCCCCCCCCCCCC)cc1 (centres undefined)
T/C (dose: 12.5 mg/kg/injection, schedule: Q01DX009 (ip), vehicle: saline + Tween-80 + alcohol): 96 % of control | T/C (dose: 12.5 mg/kg/injection, schedule: Q01DX009 (ip), vehicle: saline + alcohol): 91 % of control | T/C (dose: 25.0 mg/kg/injection, schedule: Q01DX009 (ip), vehicle: saline + Tween-80 + alcohol): 88 % of control | T/C (dose: 25.0 mg/kg/injection, schedule: Q01DX009 (ip), vehicle: saline + alcohol): 105 % of control | T/C (dose: 50.0 mg/kg/injection, schedule: Q01DX009 (ip), vehicle: saline + Tween-80 + alcohol): 90 % of control | T/C (dose: 50.0 mg/kg/injection, schedule: Q01DX009 (ip), vehicle: saline + alcohol): 105 % of control | T/C (dose: 100.0 mg/kg/injection, schedule: Q01DX009 (ip), vehicle: saline + Tween-80 + alcohol): 107 % of control | T/C (dose: 100.0 mg/kg/injection, schedule: Q01DX009 (ip), vehicle: saline + alcohol): 91 % of control | T/C (dose: 200.0 mg/kg/injection, schedule: Q01DX009 (ip), vehicle: saline + Tween-80 + alcohol): 107 % of control | T/C (dose: 200.0 mg/kg/injection, schedule: Q01DX009 (ip), vehicle: saline + alcohol): 97 % of control | T/C (dose: 400.0 mg/kg/injection, schedule: Q01DX009 (ip), vehicle: saline + alcohol): 105 % of control

C(=Nc1ccc2ccccc2c1)c1ccccc1
T/C (dose: 50.0 mg/kg/injection, schedule: Q04DX002 (ip), vehicle: saline with Tween-80): 91 % of control | T/C (dose: 100.0 mg/kg/injection, schedule: Q04DX002 (ip), vehicle: saline with Tween-80): 95 % of control | T/C (dose: 200.0 mg/kg/injection, schedule: Q04DX002 (ip), vehicle: saline with Tween-80): 95 % of control | T/C (dose: 400.0 mg/kg/injection, schedule: Q04DX002 (ip), vehicle: saline with Tween-80): 98 % of control

COc1cc2c(cc1OC)CCN=C2
T/C (dose: 50.0 mg/kg/injection, schedule: Q01DX009 (ip), vehicle: saline): 106 % of control | T/C (dose: 100.0 mg/kg/injection, schedule: Q01DX009 (ip), vehicle: saline): 92 % of control

Cc1cc2[nH]c(=O)[nH]c2cc1C
T/C [4]: 103 % of control | T/C [5]: 94 % of control | T/C [6]: 102 % of control

CCNC(=O)N1CC2CCC(C1)N2C
T/C [7]: 101 % of control | T/C (dose: 200.0 mg/kg/injection, schedule: Q04DX003 (ip), vehicle: saline): 96 % of control | T/C (dose: 400.0 mg/kg/injection, schedule: Q04DX003 (ip), vehicle: saline): 90 % of control

Cc1ccc(S(=O)(=O)N(CCCc2c(C)nc(N)[nH]c2=O)Cc2cccc([N+](=O)[O-])c2)cc1
T/C [8]: 92 % of control | T/C [9]: 96 % of control | T/C [10]: 92 % of control

C=CCN(C)N=Nc1ccc(C(N)=O)cc1
T/C (dose: 18.75 mg/kg/injection, schedule: Q01DX009 (ip), vehicle: Klucel (hydroxypropylcellulose) (HPC)): 106 % of control | T/C (dose: 37.5 mg/kg/injection, schedule: Q01DX009 (ip), vehicle: Klucel (hydroxypropylcellulose) (HPC)): 115 % of control | T/C (dose: 150.0 mg/kg/injection, schedule: Q01DX009 (ip), vehicle: Klucel (hydroxypropylcellulose) (HPC)): 156 % of control | T/C (dose: 300.0 mg/kg/injection, schedule: Q01DX009 (ip), vehicle: Klucel (hydroxypropylcellulose) (HPC)): 92 % of control

Cc1nc2ccccn2c(=O)c1Br
T/C (dose: 50.0 mg/kg/injection, schedule: Q01DX001 (ip), vehicle: saline): 104 % of control | T/C [1]: 104 % of control | T/C [2]: 104 % of control

COc1ccc(/C=N\NC(=O)CNC(=O)Nc2cccc(C(F)(F)F)c2)cc1OC
T/C (dose: 12.5 mg/kg/injection, schedule: Q01DX009 (ip), vehicle: saline with Tween-80): 87 % of control | T/C [5]: 96 % of control | T/C [6]: 96 % of control

CN1CCN(CC(=O)N2c3ccccc3Sc3cc4ccccc4cc32)CC1
T/C [11]: 101 % of control | T/C [12]: 108 % of control | T/C [13]: 96 % of control

Cc1cc(Cl)ccc1NC(=O)SCc1ccc(Cl)cc1
T/C [4]: 95 % of control | T/C [5]: 100 % of control | T/C [6]: 103 % of control

NC(CCC(=O)NC(CSC(c1ccccc1)(c1ccccc1)c1ccc(F)cc1)C(=O)NCC(=O)O)C(=O)O (centres undefined)
T/C (dose: 25.0 mg/kg/injection, schedule: Q01DX009 (ip), vehicle: saline): 120 % of control | T/C (dose: 200.0 mg/kg/injection, schedule: Q01DX009 (ip), vehicle: saline): 150 % of control

NC1=NC(=S)CS1
T/C [11]: 95 % of control | T/C [12]: 95 % of control | T/C [13]: 87 % of control

Cc1cn(C2CC3[O][Sn]([CH3])([CH3])[O]CC3O2)c(=O)[nH]c1=O (centres undefined)
T/C (dose: 12.5 mg/kg/injection, schedule: Q01DX005 (ip), vehicle: other): 105 % of control | T/C (dose: 25.0 mg/kg/injection, schedule: Q01DX005 (ip), vehicle: other): 108 % of control | T/C (dose: 50.0 mg/kg/injection, schedule: Q01DX005 (ip), vehicle: other): 103 % of control

CC1Cc2c([nH]c(=O)n(-c3ccccc3)c2=O)O1 (centres undefined)
T/C [1]: 103 % of control | T/C [2]: 92 % of control | T/C [3]: 92 % of control

O=S1(=O)CCC2CCCCC2C1 (centres undefined)
T/C (dose: 12.5 mg/kg/injection, schedule: Q04DX003 (ip), vehicle: saline with Tween-80): 103 % of control | T/C (dose: 25.0 mg/kg/injection, schedule: Q04DX003 (ip), vehicle: saline with Tween-80): 100 % of control

CC(=O)OCCCOC(C)=O
T/C [8]: 93 % of control | T/C [9]: 112 % of control | T/C [10]: 101 % of control

COC12CCCC1S(=O)(=O)C2 (centres undefined)
T/C (dose: 25.0 mg/kg/injection, schedule: Q04DX003 (ip), vehicle: saline): 101 % of control | T/C (dose: 50.0 mg/kg/injection, schedule: Q04DX003 (ip), vehicle: saline): 108 % of control | T/C [7]: 95 % of control

OC(COc1ccccc1)CN1CCCCC1 (centres undefined)
T/C [5]: 100 % of control | T/C (dose: 100.0 mg/kg/injection, schedule: Q04DX003 (ip), vehicle: saline with Tween-80): 101 % of control | T/C [6]: 100 % of control | T/C [14]: 98 % of control | T/C (dose: 400.0 mg/kg/injection, schedule: Q01DX009 (ip), vehicle: saline with Tween-80): 102 % of control | T/C (dose: 400.0 mg/kg/injection, schedule: Q04DX003 (ip), vehicle: saline with Tween-80): 98 % of control

Clc1ccc2nc(C(Cl)(Cl)Cl)nc(NCCN3CCCCC3)c2c1
T/C [4]: 89 % of control | T/C [5]: 113 % of control | T/C [6]: 97 % of control | T/C [14]: 91 % of control
